From US10723765B2, “Beta-hairpin peptidomimetics as selective elastase inhibitors” (POLYPHOR AG, priority 2013, dated 2020)
Non-standard residues stand in square brackets, D forms with d. Residues, ends and D or L forms follow the SMILES beside them. Gly(octyl) = CCCCCCCC[C@H](N)C(=O)O; hTyr = N[C@@H](CCc1ccc(O)cc1)C(=O)O; hArg = N=C(N)NCCCC[C@H](N)C(=O)O; AllylGly = C=CC[C@H](N)C(=O)O; hLeu = CC(C)CC[C@H](N)C(=O)O; Nle = CCCC[C@H](N)C(=O)O

Tests used:
Assay type in all cases: biochemical
human proteinase 3 = target: T1, human proteinase 3 (Homo sapiens, UniProt P24158); assay: Inhibition of human proteinase 3 (Boc-Ala-Ala-Nva-SBzl); details: for IC50: 10 nM enzyme, 1 mM substrate, 37° C., pH7.4, read-out: Human proteinase 3 (hPr3) IC50; for hNE/hPr3 selectivity: ratio of hPr3 IC50 to hNE IC50
T1 construct: purchased Elastin Products Company, USA
T1 sequence (P24158 28-248): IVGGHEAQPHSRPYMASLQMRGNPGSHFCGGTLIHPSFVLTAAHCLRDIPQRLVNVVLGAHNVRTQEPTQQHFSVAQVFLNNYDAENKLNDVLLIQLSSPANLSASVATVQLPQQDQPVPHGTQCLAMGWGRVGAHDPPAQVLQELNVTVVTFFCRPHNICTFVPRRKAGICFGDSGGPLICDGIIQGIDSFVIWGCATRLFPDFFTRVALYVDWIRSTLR
Description: 2.4. Inhibition of Human Proteinase 3
The inactivation of human proteinase 3 (Elastin Products Company, USA) by the peptides of the invention using synthetic tripeptidic substrate Boc-Ala-Ala-Nva-SBzl (Elastin Products Company, USA) was determined as follows:
(§1) The above substrate (1 mM), 4,4′-dithiodipyridine (250 μM) and human proteinase 3 (10 nM) were incubated at 37° C. with serial dilutions of the peptides (0.5% DMSO final) in assay buffer (50 mM Tris, pH7.4, 150 mM NaCl, 0.01% Tween20). The reaction process was followed by monitoring the change in absorbance at 340 nm for 30 minutes. Control assays with the same assay set-up as above, but without peptide, ran linearly. The dose-response data were fitted to the 4-parameter Hill equation providing the IC50 value using Graphpad (Prism 5).

[1] = target: T2, human neutrophil elastase (Homo sapiens, UniProt P08246); assay: Inhibition of human neutrophil elastase (MeOSuc-AAPV-pNA hydrolysis); details: 10 nM enzyme, 0.3 mM substrate, 37° C., pH 8; read-out: Human neutrophil elastase (hNE) IC50
T2 construct: purchased Serva Electrophoresis, Germany
T2 sequence (P08246 30-267): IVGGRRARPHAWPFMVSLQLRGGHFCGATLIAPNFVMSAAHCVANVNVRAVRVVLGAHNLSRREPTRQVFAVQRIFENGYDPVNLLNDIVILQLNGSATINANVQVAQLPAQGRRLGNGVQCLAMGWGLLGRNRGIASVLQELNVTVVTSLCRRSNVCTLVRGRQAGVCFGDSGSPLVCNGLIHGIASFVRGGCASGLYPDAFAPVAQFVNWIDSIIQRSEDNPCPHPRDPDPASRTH
Description: 2.2. Inhibition of Human Neutrophil Elastase
The ability of the peptides of the invention to inhibit the hydrolysis activity of human neutrophil elastase (Serva Electrophoresis, Germany) using the synthetic tetrapeptidic substrate MeOSuc-AAPV-pNA (Bachem, Switzerland) was determined as follows:
as §1, with “(0.3 mM)” for “(1 mM), 4,4′-dithiodipyridine (250 μM)”, “neutrophil elastase” for “proteinase 3”, “(1%” for “(0.5%”, “pH 8, 300” for “pH7.4, 150”, “release of pNA” for “reaction process”, “405” for “340”

[2] = target: T3, porcine pancreatic elastase (Sus scrofa, UniProt P00772); assay: Inhibition of porcine pancreatic elastase (MeOSuc-AAA-pNA hydrolysis); details: for IC50: 15 nM enzyme, 1 mM substrate, 37° C., pH8, read-out: Porcine pancreatic elastase (PPE) IC50; for hNE/PPE selectivity: ratio of PPE IC50 to hNE IC50
T3 construct: purchased Sigma, USA
Description: 2.3. Inhibition of Porcine Pancreatic Elastase
The ability of the peptides of the invention to inhibit the hydrolysis activity of porcine pancreatic elastase (Sigma, USA) using the synthetic tripeptidic substrate MeOSuc-AAA-pNA (Bachem, Switzerland) was determined as follows:
as §1, with “mM)” for “mM), 4,4′-dithiodipyridine (250 μM)”, “porcine pancreatic elastase (15” for “proteinase 3 (10”, “pH8, 100” for “pH7.4, 150”, “release of pNA” for “reaction process”, “405” for “340”

T3 sequence (P00772 27-266): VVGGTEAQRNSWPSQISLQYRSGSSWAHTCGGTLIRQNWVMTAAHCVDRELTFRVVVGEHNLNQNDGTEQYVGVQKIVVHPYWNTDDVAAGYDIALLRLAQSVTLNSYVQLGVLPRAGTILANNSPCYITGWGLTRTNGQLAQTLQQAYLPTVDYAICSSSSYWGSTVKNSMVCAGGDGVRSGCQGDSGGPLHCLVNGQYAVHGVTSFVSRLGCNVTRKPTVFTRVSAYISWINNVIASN

| SMILES | IC50 (human proteinase 3) [nM] | hNE/hPr3 selectivity (human proteinase 3) | IC50 [1] [nM] | IC50 [2] [nM] | hNE/PPE selectivity [2] |
| --- | --- | --- | --- | --- | --- |
| CCCCCCCC[C@@H]1NC(=O)[C@@H]2CCCN2C(=O)[C@H]2CCCN2C(=O)[C@H]([C@@H](C)O)NC(=O)[C@H](CCCCN)NC(=O)[C@H](Cc2ccc(O)cc2)NC(=O)[C@@H]2CCCN2C(=O)[C@@H]2CCCN2C(=O)[C@H]([C@@H](C)CC)NC(=O)[C@H](CO)NC(=O)[C@H](C)NC(=O)[C@H]([C@@H](C)O)NC(=O)[C@H](CCC(=O)O)NC1=O [Example 2, Cyclo(-OctGly-Glu-Thr-Ala-Ser-Ile-Pro-Pro-Tyr-Lys-Thr-^DPro-Pro-)] (cyclo([Gly(octyl)]ETASIPPYKT[dP]P)) | 1520 | 282 | 5.4 | 530 | 98 |
| CCCCCCCC[C@@H]1NC(=O)[C@@H]2CCCN2C(=O)[C@H]2CCCN2C(=O)[C@H]([C@@H](C)O)NC(=O)[C@H](CCCCN)NC(=O)[C@H](CCC(N)=O)NC(=O)[C@@H]2CCCN2C(=O)[C@@H]2CCCN2C(=O)[C@H]([C@@H](C)CC)NC(=O)[C@H](CO)NC(=O)[C@H](C)NC(=O)[C@H]([C@@H](C)O)NC(=O)[C@H](CCC(=O)O)NC1=O [Example 4, Cyclo(-OctGly-Glu-Thr-Ala-Ser-Ile-Pro-Pro-Gln-Lys-Thr-^DPro-Pro-)] (cyclo([Gly(octyl)]ETASIPPQKT[dP]P)) | 2150 | 272 | 7.9 | 2750 | 348 |
| CC[C@H](C)[C@@H]1NC(=O)[C@H](CO)NC(=O)[C@H](C)NC(=O)[C@H]([C@@H](C)O)NC(=O)[C@H](CCc2ccc(O)cc2)NC(=O)[C@H](CCCNC(=N)N)NC(=O)[C@@H]2CCCN2C(=O)[C@H]2CCCN2C(=O)[C@H](Cc2ccc(O)cc2)NC(=O)[C@H](CCCCN)NC(=O)[C@H](CCC(N)=O)NC(=O)[C@@H]2CCCN2C(=O)[C@@H]2CCCN2C1=O [Example 5, Cyclo(-Arg-hTyr-Thr-Ala-Ser-Ile-Pro-Pro-Gln-Lys-Tyr-^DPro-Pro-)] (cyclo(R[hTyr]TASIPPQKY[dP]P)) | 1710 | 135 | 12.7 | 1750 | 138 |
| CCCC[C@@H]1NC(=O)[C@H](CCCNC(=N)N)NC(=O)[C@@H]2CCCN2C(=O)[C@H]2CCCN2C(=O)[C@H](Cc2ccc(O)cc2)NC(=O)[C@H](CCCCN)NC(=O)[C@H](CCC(N)=O)NC(=O)[C@@H]2CCCN2C(=O)[C@@H]2CCCN2C(=O)[C@H]([C@@H](C)CC)NC(=O)[C@H](CO)NC(=O)[C@H](C)NC(=O)[C@H]([C@@H](C)O)NC1=O [Example 6, Cyclo(-Arg-Nle-Thr-Ala-Ser-Ile-Pro-Pro-Gln-Lys-Tyr-^DPro-Pro-)] (cyclo(R[Nle]TASIPPQKY[dP]P)) | 2370 | 153 | 15.5 | 2690 | 174 |
| CC[C@H](C)[C@@H]1NC(=O)[C@H](CO)NC(=O)[C@H](C)NC(=O)[C@H]([C@@H](C)O)NC(=O)[C@H](CCC(=O)O)NC(=O)[C@H](CCCNC(=N)N)NC(=O)[C@@H]2CCCN2C(=O)[C@H]2CCCN2C(=O)[C@H](CO)NC(=O)[C@H](CCCCN)NC(=O)[C@H](Cc2ccc(O)cc2)NC(=O)[C@@H]2CCCN2C(=O)[C@@H]2CCCN2C1=O [Example 8, Cyclo(-Arg-Glu-Thr-Ala-Ser-Ile-Pro-Pro-Tyr-Lys-Ser-^DPro-Pro-)] (cyclo(RETASIPPYKS[dP]P)) | 88100 | 5372 | 16.4 | 45200 | 2756 |
| CC[C@H](C)[C@@H]1NC(=O)[C@H](CO)NC(=O)[C@H](C)NC(=O)[C@H]([C@@H](C)O)NC(=O)[C@H](CCC(=O)O)NC(=O)[C@H](CCCCNC(=N)N)NC(=O)[C@@H]2CCCN2C(=O)[C@H]2CCCN2C(=O)[C@H]([C@@H](C)O)NC(=O)[C@H](CCCCN)NC(=O)[C@H](CCC(N)=O)NC(=O)[C@@H]2CCCN2C(=O)[C@@H]2CCCN2C1=O [Example 9, Cyclo(-hArg-Glu-Thr-Ala-Ser-Ile-Pro-Pro-Gln-Lys-Thr-^DPro-Pro-)] (cyclo([hArg]ETASIPPQKT[dP]P)) | 70100 | 2958 | 23.7 | 83400 | 3519 |

The next lines start with the values.

| IC50 (human proteinase 3) [nM] | hNE/hPr3 selectivity (human proteinase 3) | IC50 [1] [nM] | IC50 [2] [nM] | hNE/PPE selectivity [2] | SMILES |
| --- | --- | --- | --- | --- | --- |
| 1810 | 342 | 5.3 | 1550 | 292 | CCCCCCCC[C@@H]1NC(=O)[C@@H]2CCCN2C(=O)[C@H]2CCCN2C(=O)[C@H](CC(N)=O)NC(=O)[C@H](CCCCN)NC(=O)[C@H](CCC(N)=O)NC(=O)[C@@H]2CCCN2C(=O)[C@@H]2CCCN2C(=O)[C@H]([C@@H](C)CC)NC(=O)[C@H](CO)NC(=O)[C@H](C)NC(=O)[C@H]([C@@H](C)O)NC(=O)[C@H](CCC(=O)O)NC1=O [Example 1, Cyclo(-OctGly-Glu-Thr-Ala-Ser-Ile-Pro-Pro-Gln-Lys-Asn-^DPro-Pro-)] (cyclo([Gly(octyl)]ETASIPPQKN[dP]P)) |
| 1440 | 262 | 5.5 | 790 | 144 | CCCCCCCC[C@@H]1NC(=O)[C@@H]2CCCN2C(=O)[C@H]2CCCN2C(=O)[C@H](CO)NC(=O)[C@H](CCCCN)NC(=O)[C@H](CCC(N)=O)NC(=O)[C@@H]2CCCN2C(=O)[C@@H]2CCCN2C(=O)[C@H]([C@@H](C)CC)NC(=O)[C@H](CO)NC(=O)[C@H](C)NC(=O)[C@H]([C@@H](C)O)NC(=O)[C@H](CCC(=O)O)NC1=O [Example 3, Cyclo(-OctGly-Glu-Thr-Ala-Ser-Ile-Pro-Pro-Gln-Lys-Ser-^DPro-Pro-)] (cyclo([Gly(octyl)]ETASIPPQKS[dP]P)) |
| 80200 | 5383 | 14.9 | 59000 | 3960 | C=CC[C@@H]1NC(=O)[C@H]([C@@H](C)O)NC(=O)[C@H](CCC(=O)O)NC(=O)[C@H](CCCNC(=N)N)NC(=O)[C@@H]2CCCN2C(=O)[C@H]2CCCN2C(=O)[C@H]([C@@H](C)O)NC(=O)[C@H](CCCCN)NC(=O)[C@H](CCC(N)=O)NC(=O)[C@@H]2CCCN2C(=O)[C@@H]2CCCN2C(=O)[C@H]([C@@H](C)CC)NC(=O)[C@H](CO)NC1=O [Example 7, Cyclo(-Arg-Glu-Thr-AllylGly-Ser-Ile-Pro-Pro-Gln-Lys-Thr-^DPro-Pro-)] (cyclo(RET[AllylGly]SIPPQKT[dP]P)) |
| > 100000 | >3333 | 30 | > 100000 | >3333 | CC[C@H](C)[C@@H]1NC(=O)[C@H](CO)NC(=O)[C@H](C)NC(=O)[C@H]([C@@H](C)O)NC(=O)[C@H](CCC(=O)O)NC(=O)[C@H](CCCNC(=N)N)NC(=O)[C@@H]2CCCN2C(=O)[C@H]2CCCN2C(=O)[C@H](CCC(C)C)NC(=O)[C@H](CCCCN)NC(=O)[C@H](CCC(N)=O)NC(=O)[C@@H]2CCCN2C(=O)[C@@H]2CCCN2C1=O [Example 10, Cyclo(-Arg-Glu-Thr-Ala-Ser-Ile-Pro-Pro-Gln-Lys-hLeu-^DPro-Pro-)] (cyclo(RETASIPPQK[hLeu][dP]P)) |
